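Protocol summary: plate cells (96-well), add compound at 5 concentrations, incubate 48 h, interpolate endpoints linearly. TGI marks complete inhibition of growth.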

Some test systems named below: SK-MEL-5 melanoma; ACHN renal; OVCAR-8 ovarian; A549 NSCLC; SK-MEL-2 melanoma; SK-MEL-28 melanoma; SW-620 colon; K-562 leukemia; LOX IMVI melanoma; SF-295 CNS.
What all share (test): NCI tumour cell line growth inhibition, 48 h

As to `CCOC(=O)COC1=Nc2cc(OC)c(OC)c3nc(Cl)cc(c23)C1=O`, the TGI in the experiment with SK-MEL-5 melanoma worked out at 3.53 µM; with ACHN renal it was 3.02 µM; with OVCAR-8 ovarian, 9.8 µM; in the experiment with A549 NSCLC it was 18.3 µM; in the experiment with SK-MEL-2 melanoma, 4.09 µM; with SK-MEL-28 melanoma it was 4.01 µM. The TGI with SW-620 colon is over 21.6 µM; with K-562 leukemia, 7.2 µM; with LOX IMVI melanoma, 4.23 µM; with SF-295 CNS, 24 µM.
For `N#CC(NNC(=O)c1ccccc1O)c1ccc(O)cc1` (stereo not given), the TGI in the experiment with SK-MEL-5 melanoma was over 100 µM; in the experiment on ACHN renal it was over 100 µM; with OVCAR-8 ovarian it was over 100 µM; with A549 NSCLC it was over 100 µM; in the experiment on SK-MEL-2 melanoma it was 78.5 µM; in the experiment on SK-MEL-28 melanoma it was over 100 µM. In addition, the TGI in the experiment on SW-620 colon, with K-562 leukemia, with LOX IMVI melanoma and in the experiment with SF-295 CNS was over 100 µM throughout.
With `CN1CCCC(OC(=O)c2cc3cc(CCl)ccc3oc2=O)C1` (stereo not given), the TGI in the experiment on SK-MEL-5 melanoma was 33.9 µM; in the experiment on ACHN renal, 51.1 µM; in the experiment with OVCAR-8 ovarian it was over 100 µM; in the experiment on A549 NSCLC, over 100 µM; in the experiment on SK-MEL-2 melanoma, 33.9 µM; in the experiment with SK-MEL-28 melanoma, 50.3 µM. The TGI in the experiment with SW-620 colon is 64.8 µM; with K-562 leukemia it was over 100 µM; with LOX IMVI melanoma, 34.3 µM; with SF-295 CNS, 77.9 µM.
`O=P1(N(CCCl)CCCl)NCCCO1` (stereo not given): the TGI was over 250 µM in the experiment with SK-MEL-5 melanoma; over 250 µM with ACHN renal; over 238 µM in the experiment with OVCAR-8 ovarian; over 239 µM in the experiment with A549 NSCLC; over 238 µM in the experiment on SK-MEL-2 melanoma; over 250 µM in the experiment with SK-MEL-28 melanoma. For the same compound, the TGI in the experiment on SW-620 colon is over 250 µM; with K-562 leukemia, over 230 µM; in the experiment with LOX IMVI melanoma, over 250 µM; in the experiment on SF-295 CNS it was over 246 µM.
For `Nc1cc2ncnc(Nc3cccc(Br)c3)c2cn1`, the TGI is over 100 µM in the experiment with SK-MEL-5 melanoma; over 100 µM in the experiment on ACHN renal; over 100 µM in the experiment with OVCAR-8 ovarian; over 100 µM in the experiment with A549 NSCLC; 69.7 µM with SK-MEL-2 melanoma; over 100 µM in the experiment with SK-MEL-28 melanoma. For the same compound, the TGI in the experiment on SW-620 colon was over 100 µM; in the experiment with K-562 leukemia it was over 100 µM; in the experiment with LOX IMVI melanoma, over 100 µM; in the experiment on SF-295 CNS, 71.8 µM.
`CC(=O)c1cc(S(=O)(=O)c2ccc(O)c(C(C)=O)c2)ccc1O`: the TGI in the experiment with SK-MEL-5 melanoma, with ACHN renal, in the experiment with OVCAR-8 ovarian, with A549 NSCLC, in the experiment with SK-MEL-2 melanoma and with SK-MEL-28 melanoma was over 100 µM throughout. In addition, the TGI in the experiment with SW-620 colon, in the experiment on K-562 leukemia, with LOX IMVI melanoma and in the experiment on SF-295 CNS was over 100 µM in each case.
With `COc1ccc(/C=N/N=C(\N)NO)c(OC)c1OC`, the TGI in the experiment with SK-MEL-5 melanoma was 72 µM; in the experiment on ACHN renal, 67.2 µM; with OVCAR-8 ovarian, 41.9 µM; in the experiment on A549 NSCLC it was over 100 µM; with SK-MEL-2 melanoma, over 100 µM; in the experiment on SK-MEL-28 melanoma it was over 100 µM. Moreover, the TGI in the experiment with SW-620 colon, in the experiment on K-562 leukemia, in the experiment on LOX IMVI melanoma and in the experiment with SF-295 CNS was over 100 µM throughout.
Consider `CCOC(=O)c1c(SCCN2CCCCC2)n(-c2ccccc2)c(=S)n(-c2ccccc2)c1=O`, for which the TGI in the experiment with SK-MEL-5 melanoma is 29.7 µM; with ACHN renal it was 34.7 µM; with OVCAR-8 ovarian it was 54.1 µM; with A549 NSCLC, over 100 µM; with SK-MEL-2 melanoma, over 100 µM; in the experiment on SK-MEL-28 melanoma it was 24 µM. Moreover, the TGI in the experiment with SW-620 colon was 13.8 µM; with K-562 leukemia it was 11 µM; with LOX IMVI melanoma, 26.2 µM; with SF-295 CNS it was over 100 µM.
As to `O=C1/C(=C(/Br)I)c2ccccc2-c2ccccc21`, the TGI was found to be 31.1 µM in the experiment on SK-MEL-5 melanoma; 19 µM in the experiment with ACHN renal; 31.5 µM with OVCAR-8 ovarian; 32 µM in the experiment with A549 NSCLC; 31.5 µM with SK-MEL-2 melanoma; 42.8 µM in the experiment with SK-MEL-28 melanoma. The TGI in the experiment on SW-620 colon amounted to 8.12 µM; with K-562 leukemia, 7.24 µM; with LOX IMVI melanoma it was 12.2 µM; with SF-295 CNS, 31.4 µM.
As for `C/C(=C\COP(=O)(O)OP(=O)(O)O)CC/C=C(\C)CNc1ccccc1`, the TGI with SK-MEL-5 melanoma, in the experiment with ACHN renal, with OVCAR-8 ovarian, in the experiment with A549 NSCLC, with SK-MEL-2 melanoma and in the experiment on SK-MEL-28 melanoma was over 50 µM throughout. Moreover, the TGI in the experiment on SW-620 colon, in the experiment with K-562 leukemia, in the experiment with LOX IMVI melanoma and in the experiment on SF-295 CNS was over 50 µM in each case.
As to `CN1C(=O)C(CCO)(C(C)(C)C)c2ccccc21` (stereo not given), the TGI in the experiment with SK-MEL-5 melanoma, with ACHN renal, in the experiment with OVCAR-8 ovarian, in the experiment with A549 NSCLC, with SK-MEL-2 melanoma and in the experiment on SK-MEL-28 melanoma was over 100 µM throughout. Moreover, the TGI in the experiment on SW-620 colon, with K-562 leukemia, with LOX IMVI melanoma and with SF-295 CNS was over 100 µM in each case.
On to `C=C1CN=C(Nc2ccc(F)cc2F)S1`, for which the TGI in the experiment on SK-MEL-5 melanoma, in the experiment with ACHN renal, in the experiment with OVCAR-8 ovarian, in the experiment with A549 NSCLC, with SK-MEL-2 melanoma and in the experiment with SK-MEL-28 melanoma was over 100 µM each time. In addition, the TGI is over 100 µM with SW-620 colon, over 100 µM with K-562 leukemia, 49.2 µM in the experiment on LOX IMVI melanoma and over 100 µM in the experiment on SF-295 CNS.
Consider `CC(=O)NC1C(OCc2ccccc2)OC(CO)C(O)C1OCC(=O)N[C@@H](C)C(=O)N[C@H](CCC(=O)NCCCCNc1c2ccccc2nc2cccc([N+](=O)[O-])c12)C(N)=O` (stereo not given in full), for which the TGI in the experiment with SK-MEL-5 melanoma is 2.58 µM; in the experiment with ACHN renal it was 11.3 µM; in the experiment with OVCAR-8 ovarian, 5.03 µM; in the experiment with A549 NSCLC, over 100 µM; with SK-MEL-2 melanoma, 5 µM; in the experiment on SK-MEL-28 melanoma, 23.4 µM. For the same compound, the TGI is 97 µM in the experiment with SW-620 colon, over 100 µM in the experiment on K-562 leukemia, 11.5 µM in the experiment on LOX IMVI melanoma and 37.3 µM in the experiment on SF-295 CNS.

The record behind these values is PubChem BioAssay (NCI).
